The source made the active and inactive calls. The rule behind the calls is not given here.
Experiments:
[1] = Growth inhibition of human U87MG cells after 72 hrs by MTS-PMS assay; assay type: functional, U-87MG ATCC; conditions: U-87 MG
[2] = system: HT-29; assay: Growth inhibition of human HT-29 cells after 72 hrs by MTS-PMS assay; assay type: functional; conditions: HT-29, 72 h
[3] = Cytotoxicity against mouse C3H10T1/2 cells at 10 uM after 24 hrs; assay type: cell-based; conditions: c3h 10t1/2, 24 h
[4] = […] of hedgehog signaling in mouse C3H10T1/2 cells assessed as effect on GLI1 mRNA expression at 1 to 10 uM after 24 hrs by RT-PCR analysis in presence of oxysterol; assay type: cell-based; conditions: C3H 10T1/2
[5] = target: T1, Vitamin D3 receptor (Mus musculus) (UniProt P48281); assay: Activation of VDR in mouse C3H10T1/2 cells assessed as upregulation of CYP24A1 mRNA expression at 1 to 10 uM after 24 hrs by RT-PCR analysis; assay type: cell-based; conditions: C3H 10T1/2
T1 sequence (whole entry): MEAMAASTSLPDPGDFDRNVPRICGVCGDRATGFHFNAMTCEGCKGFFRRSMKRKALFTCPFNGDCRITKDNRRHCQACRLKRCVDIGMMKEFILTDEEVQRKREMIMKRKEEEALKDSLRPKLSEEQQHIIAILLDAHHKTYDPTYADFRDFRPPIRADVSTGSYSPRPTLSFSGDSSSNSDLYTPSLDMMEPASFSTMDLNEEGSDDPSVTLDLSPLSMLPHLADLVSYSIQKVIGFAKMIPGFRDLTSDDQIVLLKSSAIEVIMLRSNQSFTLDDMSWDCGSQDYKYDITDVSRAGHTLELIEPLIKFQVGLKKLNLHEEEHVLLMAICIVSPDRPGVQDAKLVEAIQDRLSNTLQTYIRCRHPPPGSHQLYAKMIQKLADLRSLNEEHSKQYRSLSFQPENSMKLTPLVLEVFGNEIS

[6] = target: T1, Vitamin D3 receptor (Mus musculus); assay: Activation of VDR in mouse C3H10T1/2 cells assessed as upregulation of CYP24A1 mRNA expression at 5 uM after 24 hrs by RT-PCR analysis relative to DMSO-treated control; assay type: cell-based; conditions: C3H 10T1/2
[7] = […] of hedgehog signaling in mouse C3H10T1/2 cells assessed as downregulation of GLI1 mRNA expression at 5 uM after 24 hrs by RT-PCR analysis in presence of oxysterol; assay type: cell-based; conditions: C3H 10T1/2
[8] = system: HT-29; assay: Ratio of GI50 for human U87MG cells to GI50 for human HT-29 cells; assay type: functional

SMILES	GI50 [1] [µM]	GI50 [2] [µM]	also measured
C[C@H](COC(=O)c1cccc2ccccc12)[C@H]1CC[C@H]2[C@@H](O)CCC[C@]12C	39.2	35.3	–
C[C@H](CNC(=O)C1CCCCC1)[C@H]1CC[C@H]2[C@@H](O)CCC[C@]12C	> 100	84.1	–
C[C@H](COC(=O)c1ccccc1)[C@H]1CC[C@H]2[C@@H](OC(=O)c3ccccc3)CCC[C@]12C	> 100	> 100	–
C[C@H](COC(=O)c1cccc(O)c1)[C@H]1CC[C@H]2[C@@H](O)CCC[C@]12C	76.9	70.3	–
C[C@H](COC(=O)c1cccc(Cl)c1)[C@H]1CC[C@H]2[C@@H](O)CCC[C@]12C	69	26.2	–
C[C@H](CN)[C@H]1CC[C@H]2[C@@H](O)CCC[C@]12C	> 100	> 100	–
COc1cccc(C(=O)OC[C@@H](C)[C@H]2CC[C@H]3[C@@H](O)CCC[C@]23C)c1	15.9	23.7	–
C[C@H](COC(=O)c1ccncc1)[C@H]1CC[C@H]2[C@@H](O)CCC[C@]12C	> 100	> 100	–
C[C@H](COC(=O)c1ccccc1O)[C@H]1CC[C@H]2[C@@H](O)CCC[C@]12C	18.8	14.1	Activity [3]: Toxic; Activity [4]: inactive; Activity [5]: inactive
C[C@H](COC(=O)c1ccco1)[C@H]1CC[C@H]2[C@@H](O)CCC[C@]12C	79.1	> 100	–
C[C@H](COC(=O)C1CCC1)[C@H]1CC[C@H]2[C@@H](O)CCC[C@]12C	27.1	27	–
C[C@H](COC(=O)c1ccccc1Cl)[C@H]1CC[C@H]2[C@@H](O)CCC[C@]12C	46.8	14.4	–
C[C@H](COC(=O)c1ccc(O)cc1)[C@H]1CC[C@H]2[C@@H](O)CCC[C@]12C	67	41	–
C[C@H](COC(=O)c1ccccc1)[C@H]1CC[C@H]2[C@@H](O)CCC[C@]12C	24.6	22.6	Activity [5]: inactive
C[C@H](COC(=O)C1CCCC1)[C@H]1CC[C@H]2[C@@H](O)CCC[C@]12C	21.7	22.1	–
C[C@H](COC(=O)C1CCCCC1)[C@H]1CC[C@H]2[C@@H](O)CCC[C@]12C	11.2	15.2	Activity [4]: inactive; Activity [5]: inactive
C[C@H](CNC(=O)c1ccc(Cl)cc1)[C@H]1CC[C@H]2[C@@H](O)CCC[C@]12C	42.9	32.3	–
C[C@H](COC(=O)c1cccnc1)[C@H]1CC[C@H]2[C@@H](O)CCC[C@]12C	> 100	95.2	–
C[C@H](COC(=O)c1ccc2ccccc2c1)[C@H]1CC[C@H]2[C@@H](O)CCC[C@]12C	51.3	19.8	–
C[C@H](COC(=O)C(C)(C)C)[C@H]1CC[C@H]2[C@@H](O)CCC[C@]12C	17.1	11.9	Activity [4]: inactive; Activity [5]: inactive
C=C1CC[C@H](O)C/C1=C/C=C1\CCC[C@]2(C)[C@@H]([C@H](C)CCCC(C)C)CC[C@@H]12 [CHOLECALCIFEROL]	–	53.8	fold change (FC) [6]: 8000; Activity [7]: Active
COc1ccc(C(=O)OC[C@@H](C)[C@H]2CC[C@H]3[C@@H](O)CCC[C@]23C)cc1	33.1	39.8	–
CC(C)CC(=O)OC[C@@H](C)[C@H]1CC[C@H]2[C@@H](O)CCC[C@]12C	56	47.5	–
C[C@H](COC(=O)c1ccccn1)[C@H]1CC[C@H]2[C@@H](O)CCC[C@]12C	> 100	> 100	–
COc1ccccc1C(=O)OC[C@@H](C)[C@H]1CC[C@H]2[C@@H](O)CCC[C@]12C	56	35.7	–
C[C@H](COC(=O)C1CC1)[C@H]1CC[C@H]2[C@@H](O)CCC[C@]12C	> 100	82.6	–
C[C@H](COC(=O)c1ccc(Cl)cc1)[C@H]1CC[C@H]2[C@@H](O)CCC[C@]12C	31.4	15.9	RatioGI50 [8]: 2
C[C@H](CNC(=O)c1ccccc1O)[C@H]1CC[C@H]2[C@@H](O)CCC[C@]12C	> 100	68.2	–

Reference: ChEMBL document CHEMBL2424656, “Analogues of the Inhoffen-Lythgoe diol with anti-proliferative activity” (Bioorg Med Chem Lett, 2013)
